The values that follow come from patent US11504382B2, “Tricyclic inhibitors of Hepatitis B virus” (Antios Therapeutics, Inc., priority 2018, dated 2022).

The subject of the test is HBV. Briefly: HBV inhibition assay in HepAD38 cells (extracellular HBV DNA by direct qPCR). It is filed as cell-based, Hepatitis B virus. The settings on record: 96 hours; for EC50: 8-point dose-response curve, read-out: HBV inh EC50; for inhibition at 0.1 µM: read-out: Anti HBV Activity (conc μM). (In general: Quantitative PCR measures a nucleic acid by following its amplification.)

Where [1] appears, read: Hepatitis B virus, 0.1 μM, relative to non-treated reference.

Read-outs that look alike come from different tables or passages of the source.

Turning to `Cc1noc(N2C[C@H]3COc4c(cn(C)c4C(=O)Nc4cc(F)c(F)c(F)c4)S(=O)(=O)N[C@H]3C2)n1` [Example E117, (3aR,10aR)-7-methyl-2-(3-methyl-1,2,4-oxadiazol-5-yl)-N-(3,4,5-trifluorophenyl)-2,3,3a,4,10,10a-hexahydro-1H,7H-dipyrrolo[3,4-b:3′,4′-f][1,4,5]oxathiazocine-8-carboxamide 5,5-dioxide], where the note is “Hepatitis B virus”, the EC50 – broadly, the concentration giving half of the maximal effect – is < 1 µM.

For `Cc1nnc(C(=O)N2CCC3NS(=O)(=O)c4cn(C)c(C(=O)Nc5ccc(F)c(C)c5)c4OCC3C2)o1` (racemic) [Example E130, Trans-N-(4-fluoro-3-methylphenyl)-2-methyl-8-(5-methyl-1,3,4-oxadiazole-2-carbonyl)-5,5a,6,7,8,9,9a,10-octahydro-2H-pyrido[4,3-f]pyrrolo[3,4-b][1,4,5]oxathiazocine-1-carboxamide 4,4-dioxide], the concentration giving a half-maximal response (EC50) was < 1 µM.

In the case of `Cc1noc(N2C[C@H]3COc4c(cn(C)c4C(=O)Nc4ccc(F)c(C)c4)S(=O)(=O)N[C@H]3C2)n1` [Example E115, (3aR,10aR)—N-(4-fluoro-3-methylphenyl)-7-methyl-2-(3-methyl-1,2,4-oxadiazol-5-yl)-2,3,3a,4,10,10a-hexahydro-1H,7H-dipyrrolo[3,4-b:3′,4′-f][1,4,5]oxathiazocine-8-carboxamide 5,5-dioxide], the EC50 (Hepatitis B virus) is < 1 µM.

Turning to `Cc1cc(NC(=O)c2c3c(cn2C)S(=O)(=O)N[C@H]2CN(C(=O)c4cocn4)C[C@H]2CO3)ccc1F` [Example E104, (3aR,10aR)—N-(4-fluoro-3-methylphenyl)-7-methyl-2-(oxazole-4-carbonyl)-2,3,3a,4,10,10a-hexahydro-1H,7H-dipyrrolo[3,4-b:3′,4′-f][1,4,5]oxathiazocine-8-carboxamide 5,5-dioxide], the concentration for a half-maximal effect (EC50) (Hepatitis B virus) is < 1 µM.

Turning to `Cc1nnc(C(=O)N2CCC3NS(=O)(=O)c4cn(C)c(C(=O)Nc5ccc(F)c(C)c5)c4OCC3C2)o1` (racemic) [Example E125, Cis-N-(4-fluoro-3-methylphenyl)-2-methyl-8-(5-methyl-1,3,4-oxadiazole-2-carbonyl)-5,5a,6,7,8,9,9a,10-octahydro-2H-pyrido[4,3-f]pyrrolo[3,4-b][1,4,5]oxathiazocine-1-carboxamide 4,4-dioxide], the concentration for a half-maximal effect (EC50) (Hepatitis B virus) is < 1 µM.

On to `Cn1cc2c(c1C(=O)Nc1cc(F)c(F)c(F)c1)OCC1CN(C(=O)OC3CO[C@H]4OCC[C@@H]34)CC1NS2(=O)=O` (mixture of isomers) [Example E22, cis-(3R,3aS,6aR)-hexahydrofuro[2,3-b]furan-3-yl 7-methyl-8-((3,4,5-trifluorophenyl)carbamoyl)-3a,4,10,10a-tetrahydro-1H,7H-dipyrrolo[3,4-b:3′,4′-f][1,4,5]oxathiazocine-2(3H)-carboxylate 5,5-dioxide], for which, under setting [1], the inhibition at 0.1 µM is > 50%. Besides, the concentration for a half-maximal effect (EC50) (Hepatitis B virus) was < 1 µM.

With `Cc1cc(NC(=O)c2c3c(cn2C)S(=O)(=O)NC2CN(c4nnco4)CC2CO3)ccc1F` (stereo not drawn) [Example E49, cis-N-(4-fluoro-3-methylphenyl)-7-methyl-2-(1,3,4-oxadiazol-2-yl)-2,3,3a,4,10,10a-hexahydro-1H,7H-dipyrrolo[3,4-b:3′,4′-f][1,4,5]oxathiazocine-8-carboxamide 5,5-dioxide], the concentration giving a half-maximal response (EC50) (Hepatitis B virus) was < 1 µM.

As for `CCOC(=O)N1C[C@H]2C[S+]([O-])c3c(cn(C)c3C(=O)Nc3ccc(F)c(C)c3)S(=O)(=O)N[C@H]2C1` (stereo partly drawn) [Example E122, Ethyl (3aR,10aR)-8-((4-fluoro-3-methylphenyl)carbamoyl)-7-methyl-3a,4,10,10a-tetrahydro-1H,7H-dipyrrolo[3,4-c:3′,4′-g][1,6,2]dithiazocine-2(3H)-carboxylate 5,5,9-trioxide], the EC50 (Hepatitis B virus) was < 1 µM.

For `Cc1cc(NC(=O)c2c3c(cn2C)S(=O)(=O)NC2CN(C(=O)C45CC(CO4)C5)CCC2CO3)ccc1F` (racemic) [Example E143, Trans-7-(2-oxabicyclo[2.1.1]hexane-1-carbonyl)-N-(4-fluoro-3-methylphenyl)-2-methyl-5,5a,6,7,8,9,9a,10-octahydro-2H-pyrido[3,4-f]pyrrolo[3,4-b][1,4,5]oxathiazocine-1-carboxamide 4,4-dioxide], the EC50 is < 1 µM.

With `CCOC(=O)N1CC[C@H]2NS(=O)(=O)c3cn(C)c(C(=O)Nc4ccc(F)c(F)c4)c3OC[C@H]21` [Example E27, Ethyl (3aR,10aS)-8-((3,4-difluorophenyl)carbamoyl)-7-methyl-2,3,3a,4,10,10a-hexahydro-1H,7H-dipyrrolo[3,4-b:3′,2′-f][1,4,5]oxathiazocine-1-carboxylate 5,5-dioxide], the inhibition at 0.1 µM under setting [1] was < 50%.

As for `Cc1cc(NC(=O)c2c3c(cn2C)S(=O)(=O)NC2CN(C(=O)C45CC(CO4)C5)CCC2CO3)ccc1F` (racemic) [Example E138, Cis-7-(2-oxabicyclo[2.1.1]hexane-1-carbonyl)-N-(4-fluoro-3-methylphenyl)-2-methyl-5,5a,6,7,8,9,9a,10-octahydro-2H-pyrido[3,4-f]pyrrolo[3,4-b][1,4,5]oxathiazocine-1-carboxamide 4,4-dioxide], the EC50 (Hepatitis B virus) was < 1 µM.

For the compound `Cc1nnc(C(=O)N2C[C@@H]3COc4c(cn(C)c4C(=O)Nc4ccc(F)c(C)c4)S(=O)(=O)N[C@H]3C2)o1` (single isomer, unassigned) [Example E154], where the note is “Hepatitis B virus”, the concentration for a half-maximal effect (EC50) is < 1 µM.

As for `CN1CC2COc3c(cn(C)c3C(=O)Nc3cc(F)c(F)c(F)c3)S(=O)(=O)NC2C1` (racemic) [Example E12, cis-2,7-dimethyl-N-(3,4,5-trifluorophenyl)-2,3,3a,4,10,10a-hexahydro-1H,7H-dipyrrolo[3,4-b:3′,4′-f][1,4,5]oxathiazocine-8-carboxamide 5,5-dioxide], the inhibition at 0.1 µM under setting [1] was > 50%. Moreover, the concentration giving a half-maximal response (EC50) (Hepatitis B virus) was < 1 µM.

Turning to `Cc1cc(NC(=O)c2c3c(cn2C)S(=O)(=O)NC2CN(C(=O)OC(C)(C)C)CC2CO3)ccc1F` (stereo not drawn) [Example E145, Trans-Tert-Butyl 8-((4-fluoro-3-methylphenyl)carbamoyl)-7-methyl-3a,4,10,10a-tetrahydro-1H,7H-dipyrrolo[3,4-b:3′,4′-f][1,4,5]oxathiazocine-2(3H)-carboxylate 5,5-dioxide], under “Hepatitis B virus”, the 50% effective concentration (EC50) is < 1 µM.

In the case of “tert-butyl 7-methyl-8-((3,4,5-trifluorophenyl)carbamoyl)-3a,4,10,10a-tetrahydro-1H,7H-dipyrrolo[3,4-b:3′,4′-f][1,4,5]oxathiazocine-2(3H)-carboxylate 5,5-dioxide (3aR,10aR) [Example E33]”, the “Anti HBV Activity (conc μM)” value (0.1 μM, relative to non-treated reference) was “B (0.1) (HBV inhibition less than 50% at the concentration indicated in the table)”.

Regarding `Cc1noc(C(=O)N2C[C@H]3COc4c(cn(C)c4C(=O)Nc4ccc(F)c(C)c4)S(=O)(=O)N[C@H]3C2)n1` [Example E103, (3aR,10aR)—N-(4-fluoro-3-methylphenyl)-7-methyl-2-(3-methyl-1,2,4-oxadiazole-5-carbonyl)-2,3,3a,4,10,10a-hexahydro-1H,7H-dipyrrolo[3,4-b:3′,4′-f][1,4,5]oxathiazocine-8-carboxamide 5,5-dioxide], the EC50 (Hepatitis B virus) was < 1 µM.
